Legend:
[1] = compound: CCN1CCN(Cc2ccc(Nc3ncc(F)c(-c4cc(F)c5nc(C)n(C(C)C)c5c4)n3)nc2)CC1; assay: increase in dead-cell fraction, 72 h; higher = more death;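 note: breast cancer cell lines in 384-well plates, stained with Hoechst plus LIVE/DEAD far red dye and imaged, cells above an LDR intensity threshold counted dead, Hoechst-negative corpses included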
Flavopiridol [2] = compound: T1, CN1CC[C@H](c2c(O)cc(O)c3c(=O)cc(-c4ccccc4Cl)oc23)[C@H](O)C1 [Flavopiridol]; assay: as above
THZ531 = compound: CN(C)C/C=C/C(=O)Nc1ccc(C(=O)N2CCC[C@@H](Nc3ncc(Cl)c(-c4c[nH]c5ccccc45)n3)C2)cc1 [THZ531]; assay: GR value, 72 h; higher = faster growth (1 = untreated, <0 = killing);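 note: breast cancer and non-malignant breast epithelial lines, nine half-log doses, viable cells counted by Hoechst and LIVE/DEAD dye imaging versus time-zero plates and DMSO controls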
Neratinib/HKI272 = compound: CCOc1cc2ncc(C#N)c(Nc3ccc(OCc4ccccn4)c(Cl)c3)c2cc1NC(=O)/C=C/CN(C)C [Neratinib/HKI272]; assay: as above
[3] = compound: CCN1CCN(Cc2ccc(Nc3ncc(F)c(-c4cc(F)c5nc(C)n(C(C)C)c5c4)n3)nc2)CC1; assay: as above
[4] = compound: CCc1cnn2c(NCc3ccc[n+]([O-])c3)cc(N3CCCC[C@H]3CCO)nc12; assay: as above
THZ1 = compound: CN(C)C/C=C/C(=O)Nc1ccc(C(=O)Nc2cccc(Nc3ncc(Cl)c(-c4c[nH]c5ccccc45)n3)c2)cc1 [THZ1]; assay: as above
Flavopiridol [5] = compound: T1, Flavopiridol; assay: as above
BSJ-03-123 = compound: CC(=O)c1c(C)c2cnc(Nc3ccc(N4CCN(CCOCCOCCOCCNC(=O)COc5cccc6c5C(=O)N(C5CCC(=O)NC5=O)C6=O)CC4)cn3)nc2n(C2CCCC2)c1=O [BSJ-03-123]; assay: as above
[6] = compound: CC(=O)c1c(C)c2cnc(Nc3ccc(N4CCNCC4)cn3)nc2n(C2CCCC2)c1=O; assay: as above
LEE011/Ribociclib = compound: CN(C)C(=O)c1cc2cnc(Nc3ccc(N4CCNCC4)cn3)nc2n1C1CCCC1 [LEE011/Ribociclib]; assay: as above
YKL-5-124 = compound: C=CC(=O)Nc1ccc(C(=O)Nc2[nH]nc3c2CN(C(=O)N[C@H](CN(C)C)c2ccccc2)C3(C)C)cc1 [YKL-5-124]; assay: as above

Q: Which “increase in dead-cell fraction” value ([1]; 0.001 µM) does the source give for PDX1258 here?
A: 0.0001

Q: What about the “increase in dead-cell fraction” value ([1]; 0.003162 µM) of the same cell line?
A: -0.0098

Q: And the “increase in dead-cell fraction” value ([1]; 0.01 µM)?
A: -0.0015

Q: And the “increase in dead-cell fraction” value ([1]; 0.03162 µM)?
A: -0.003

Q: And the “increase in dead-cell fraction” value ([1]; 0.1 µM)?
A: -0.0037

Q: And the “increase in dead-cell fraction” value ([1]; 0.3162 µM)?
A: 0.0003

Q: And the “increase in dead-cell fraction” value ([1]; 1 µM)?
A: 0.0382

Q: And the “increase in dead-cell fraction” value ([1]; 3.162 µM)?
A: 0.142

Q: What about the “increase in dead-cell fraction” value ([1]; 10 µM) of the same cell line?
A: 0.354

Q: What about the “increase in dead-cell fraction” value (Flavopiridol [2]; 0.0001 µM) of the same cell line?
A: 0.0131

Q: What about the “increase in dead-cell fraction” value (Flavopiridol [2]; 0.0003162 µM) of the same cell line?
A: -0.0092

Q: What about the “increase in dead-cell fraction” value (Flavopiridol [2]; 0.001 µM) of the same cell line?
A: -0.0132

Q: What about the “increase in dead-cell fraction” value (Flavopiridol [2]; 0.003162 µM) of the same cell line?
A: -0.0012

Q: And the “increase in dead-cell fraction” value (Flavopiridol [2]; 0.01 µM)?
A: 0.0042

Q: What about the “increase in dead-cell fraction” value (Flavopiridol [2]; 0.03162 µM) of the same cell line?
A: -0.0156

Q: What about the “increase in dead-cell fraction” value (Flavopiridol [2]; 0.1 µM) of the same cell line?
A: 0.0246

Q: And the “increase in dead-cell fraction” value (Flavopiridol [2]; 0.3162 µM)?
A: 0.0926

Q: And the “increase in dead-cell fraction” value (Flavopiridol [2]; 1 µM)?
A: 0.288

Q: And the GR value (THZ531; 0.0001 µM)?
A: 0.889 GR

Q: And the GR value (THZ531; 0.0003162 µM)?
A: 1.04 GR

Q: And the GR value (THZ531; 0.001 µM)?
A: 0.96 GR

Q: What about the GR value (THZ531; 0.003162 µM) of the same cell line?
A: 1.07 GR

Q: What about the GR value (THZ531; 0.01 µM) of the same cell line?
A: 1.07 GR

Q: What about the GR value (THZ531; 0.03162 µM) of the same cell line?
A: 0.765 GR

Q: And the GR value (THZ531; 0.1 µM)?
A: -0.303 GR

Q: What about the GR value (THZ531; 0.3162 µM) of the same cell line?
A: -0.601 GR

Q: And the GR value (THZ531; 1 µM)?
A: -0.509 GR

Q: And the GR value (Neratinib/HKI272; 0.0003162 µM)?
A: 1.07 GR

Q: And the GR value (Neratinib/HKI272; 0.001 µM)?
A: 1.02 GR

Q: And the GR value (Neratinib/HKI272; 0.003162 µM)?
A: 1.1 GR

Q: And the GR value (Neratinib/HKI272; 0.01 µM)?
A: 1 GR

Q: What about the GR value (Neratinib/HKI272; 0.03162 µM) of the same cell line?
A: 0.938 GR

Q: And the GR value (Neratinib/HKI272; 0.1 µM)?
A: 0.772 GR

Q: And the GR value (Neratinib/HKI272; 0.3162 µM)?
A: 0.749 GR

Q: What about the GR value (Neratinib/HKI272; 1 µM) of the same cell line?
A: 0.548 GR

Q: And the GR value (Neratinib/HKI272; 3.162 µM)?
A: 0.195 GR

Q: What about the GR value ([3]; 0.001 µM) of the same cell line?
A: 1.06 GR

Q: What about the GR value ([3]; 0.003162 µM) of the same cell line?
A: 1.1 GR

Q: What about the GR value ([3]; 0.01 µM) of the same cell line?
A: 1.03 GR

Q: And the GR value ([3]; 0.03162 µM)?
A: 0.961 GR

Q: And the GR value ([3]; 0.1 µM)?
A: 0.911 GR

Q: And the GR value ([3]; 0.3162 µM)?
A: 0.719 GR

Q: What about the GR value ([3]; 1 µM) of the same cell line?
A: 0.375 GR

Q: What about the GR value ([3]; 3.162 µM) of the same cell line?
A: -0.0697 GR

Q: And the GR value ([3]; 10 µM)?
A: -0.334 GR

Q: And the GR value ([4]; 0.0001 µM)?
A: 1.05 GR

Q: What about the GR value ([4]; 0.0003162 µM) of the same cell line?
A: 1.08 GR

Q: And the GR value ([4]; 0.001 µM)?
A: 1.13 GR

Q: What about the GR value ([4]; 0.003162 µM) of the same cell line?
A: 1.08 GR

Q: And the GR value ([4]; 0.01 µM)?
A: 0.655 GR

Q: What about the GR value ([4]; 0.03162 µM) of the same cell line?
A: -0.491 GR

Q: What about the GR value ([4]; 0.1 µM) of the same cell line?
A: -0.587 GR

Q: And the GR value ([4]; 0.3162 µM)?
A: -0.579 GR

Q: And the GR value ([4]; 1 µM)?
A: -0.628 GR

Q: What about the GR value (THZ1; 0.0001 µM) of the same cell line?
A: 1.11 GR

Q: What about the GR value (THZ1; 0.0003162 µM) of the same cell line?
A: 1.16 GR

Q: What about the GR value (THZ1; 0.001 µM) of the same cell line?
A: 1.17 GR

Q: What about the GR value (THZ1; 0.003162 µM) of the same cell line?
A: 0.923 GR

Q: And the GR value (THZ1; 0.01 µM)?
A: 0.918 GR

Q: What about the GR value (THZ1; 0.03162 µM) of the same cell line?
A: -0.295 GR

Q: And the GR value (THZ1; 0.1 µM)?
A: -0.51 GR

Q: What about the GR value (THZ1; 0.3162 µM) of the same cell line?
A: -0.509 GR

Q: And the GR value (THZ1; 1 µM)?
A: -0.665 GR

Q: What about the GR value (Flavopiridol [5]; 0.0001 µM) of the same cell line?
A: 1.03 GR

Q: What about the GR value (Flavopiridol [5]; 0.0003162 µM) of the same cell line?
A: 0.973 GR

Q: And the GR value (Flavopiridol [5]; 0.001 µM)?
A: 1.02 GR

Q: What about the GR value (Flavopiridol [5]; 0.003162 µM) of the same cell line?
A: 1.07 GR

Q: And the GR value (Flavopiridol [5]; 0.01 µM)?
A: 1.18 GR

Q: What about the GR value (Flavopiridol [5]; 0.03162 µM) of the same cell line?
A: 0.831 GR

Q: What about the GR value (Flavopiridol [5]; 0.1 µM) of the same cell line?
A: 0.5 GR

Q: And the GR value (Flavopiridol [5]; 0.3162 µM)?
A: -0.24 GR

Q: And the GR value (Flavopiridol [5]; 1 µM)?
A: -0.402 GR

Q: What about the GR value (BSJ-03-123; 0.001 µM) of the same cell line?
A: 1.13 GR

Q: And the GR value (BSJ-03-123; 0.003162 µM)?
A: 0.919 GR

Q: What about the GR value (BSJ-03-123; 0.01 µM) of the same cell line?
A: 1.2 GR

Q: And the GR value (BSJ-03-123; 0.03162 µM)?
A: 1.29 GR

Q: And the GR value (BSJ-03-123; 0.1 µM)?
A: 1.08 GR

Q: And the GR value (BSJ-03-123; 0.3162 µM)?
A: 1.02 GR

Q: What about the GR value (BSJ-03-123; 1 µM) of the same cell line?
A: 0.916 GR

Q: And the GR value (BSJ-03-123; 3.162 µM)?
A: 0.819 GR

Q: What about the GR value (BSJ-03-123; 10 µM) of the same cell line?
A: -0.415 GR

Q: What about the GR value ([6]; 0.0003162 µM) of the same cell line?
A: 1.07 GR

Q: And the GR value ([6]; 0.001 µM)?
A: 1.08 GR

Q: What about the GR value ([6]; 0.003162 µM) of the same cell line?
A: 1.11 GR

Q: What about the GR value ([6]; 0.01 µM) of the same cell line?
A: 1.12 GR

Q: What about the GR value ([6]; 0.03162 µM) of the same cell line?
A: 1.1 GR

Q: What about the GR value ([6]; 0.1 µM) of the same cell line?
A: 1.05 GR

Q: And the GR value ([6]; 0.3162 µM)?
A: 1.09 GR

Q: What about the GR value ([6]; 1 µM) of the same cell line?
A: 1.09 GR

Q: What about the GR value ([6]; 3.162 µM) of the same cell line?
A: 0.993 GR

Q: What about the GR value (LEE011/Ribociclib; 0.001 µM) of the same cell line?
A: 1.11 GR

Q: What about the GR value (LEE011/Ribociclib; 0.003162 µM) of the same cell line?
A: 1.12 GR

Q: And the GR value (LEE011/Ribociclib; 0.01 µM)?
A: 0.914 GR

Q: And the GR value (LEE011/Ribociclib; 0.03162 µM)?
A: 1.18 GR

Q: What about the GR value (LEE011/Ribociclib; 0.1 µM) of the same cell line?
A: 1.19 GR

Q: And the GR value (LEE011/Ribociclib; 0.3162 µM)?
A: 1.11 GR

Q: What about the GR value (LEE011/Ribociclib; 1 µM) of the same cell line?
A: 0.93 GR

Q: And the GR value (LEE011/Ribociclib; 3.162 µM)?
A: 1.14 GR

Q: What about the GR value (LEE011/Ribociclib; 10 µM) of the same cell line?
A: 1.02 GR

Q: And the GR value (YKL-5-124; 0.001 µM)?
A: 0.686 GR

Q: And the GR value (YKL-5-124; 0.003162 µM)?
A: 0.363 GR

Q: What about the GR value (YKL-5-124; 0.01 µM) of the same cell line?
A: 0.231 GR

Q: And the GR value (YKL-5-124; 0.03162 µM)?
A: 0.0382 GR

Q: What about the GR value (YKL-5-124; 0.1 µM) of the same cell line?
A: 0.0596 GR

Q: What about the GR value (YKL-5-124; 0.3162 µM) of the same cell line?
A: -0.0277 GR

Q: What about the GR value (YKL-5-124; 1 µM) of the same cell line?
A: -0.147 GR

Q: And the GR value (YKL-5-124; 3.162 µM)?
A: -0.294 GR

Q: What about the GR value (YKL-5-124; 10 µM) of the same cell line?
A: -0.519 GR
